Assay [1] addresses T1, Cysteine protease ATG4B (Homo sapiens, UniProt Q9Y4P1).
T1 sequence (Q9Y4P1 whole entry): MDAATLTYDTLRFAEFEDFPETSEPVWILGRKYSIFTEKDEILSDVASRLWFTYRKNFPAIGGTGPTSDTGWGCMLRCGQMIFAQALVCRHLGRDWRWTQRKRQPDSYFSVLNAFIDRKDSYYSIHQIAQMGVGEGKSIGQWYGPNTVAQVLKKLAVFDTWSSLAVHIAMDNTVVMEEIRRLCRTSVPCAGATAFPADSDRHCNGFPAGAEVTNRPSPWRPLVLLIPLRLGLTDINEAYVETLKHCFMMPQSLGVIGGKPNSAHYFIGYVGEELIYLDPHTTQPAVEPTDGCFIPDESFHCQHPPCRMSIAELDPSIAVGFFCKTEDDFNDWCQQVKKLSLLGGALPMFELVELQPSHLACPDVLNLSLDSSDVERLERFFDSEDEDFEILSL
The experiment in a line: Inhibition of recombinant ATG4B (unknown origin) expressed in Escherichia coli BL21(DE3) pLysS cells using LC3-GST as substrate incubated for 3 hrs by coomassie brilliant blue staining based assay.

The target of another assay is Phospholipase A2 (Homo sapiens, UniProt P04054). The assay can be described thus: Inhibition of PLA2 (unknown origin).
The species entered for the next assay is Homo sapiens. The assay can be described thus: Selectivity ratio of IC50 for inhibition of PLA2 (unknown origin) to IC50 for inhibition of recombinant ATG4B (unknown origin) expressed in Escherichia coli BL21(DE3) pLysS cells.
Assay [2] deals with LNCaP. The assay can be described thus: Induction of autophagy in human LNCaP cells assessed as increase in GABARAP2 level at 10 uM preincubated for 2 hrs followed by medium change into aminoacid free medium for 3 hrs by immunoblotting analysis. It counts as functional, cell-based. To be noted: time 5.0 hrs.
For assay [3], the target named is T2, Cysteine protease ATG4B (Homo sapiens) (UniProt Q9Y4P1).
T2 sequence (whole entry): T1 sequence (Q9Y4P1 whole entry)
The experiment in a line: Reversible inhibition of recombinant ATG4B (unknown origin) expressed in Escherichia coli BL21(DE3) pLysS cells at 100 uM using LC3-GST as substrate preincubated for 30 mins with 0.3 uM LC3-GST followed by dialysis and again incubated with 3 uM LC3-GST for 15 mins by coomassie brilliant blue staining based assay. To be noted: time 45.0 min.

For assay [4], the target named is T2, Cysteine protease ATG4B (Homo sapiens). The assay can be described thus: Inhibition of recombinant ATG4B (unknown origin) expressed in Escherichia coli BL21(DE3) pLysS cells at 10 uM using LC3-GST as substrate incubated for 3 hrs by coomassie brilliant blue staining based assay.
The target is the same in assay [5]. The assay can be described thus: Inhibition of recombinant ATG4B (unknown origin) expressed in Escherichia coli BL21(DE3) pLysS cells at 20 to 50 uM using LC3-GST as substrate by coomassie brilliant blue staining based assay. The conditions noted are these: dose 20-50 µM, time 15-180 min, TDE = time-dependent effect.
Assay [6] addresses T1, Cysteine protease ATG4B. The assay can be described thus: Inhibition of recombinant ATG4B (unknown origin) expressed in Escherichia coli BL21(DE3) pLysS cells assessed as inhibition constant using LC3-GST as substrate incubated for 3 hrs by coomassie brilliant blue staining based assay.
Assay [7] deals with LNCaP. The assay can be described thus: Inhibition of AFM induced autophagy in human LNCaP cells assessed as restoration of p62 expression at 5 uM by Western blot analysis. It counts as functional, cell-based.
The test system of assay [8] is LNCaP. The assay can be described thus: Inhibition of AFM induced autophagy in human LNCaP cells assessed as suppression of autophagosome by DAP green staining based assay. It counts as functional, cell-based.
In assay [9] the test system is LNCaP. The experiment in a line: Inhibition of abiraterone induced autophagy in human LNCaP cells at 10 uM preincubated for 2 hrs followed by abiraterone addition and measured after 24 hrs by DAP green staining based assay. It is filed as functional, cell-based. To be noted: time 26.0 hrs.
The subject of assay [10] is LNCaP. The assay can be described thus: Inhibition of enzalutamide induced autophagy in human LNCaP cells at 10 uM preincubated for 2 hrs followed by enzalutamide addition and measured after 24 hrs by DAP green staining based assay. It counts as functional, cell-based. To be noted: time 26.0 hrs.
In assay [11] the test system is LNCaP. The assay can be described thus: Induction of apoptosis in human LNCaP cells assessed as increase in cleaved capase-9 expression at 10 uM preincubated for 2 hrs followed by abiraterone addition and measured after 24 hrs by Western blotting analysis. To be noted: time 26.0 hrs. It is filed as functional, cell-based.
For assay [12], the system named is LNCaP. The experiment in a line: Induction of apoptosis in human LNCaP cells assessed as increase in cleaved PARP expression at 10 uM preincubated for 2 hrs followed by abiraterone addition and measured after 24 hrs by Western blotting analysis. It is filed as functional, cell-based. The conditions noted are these: time 26.0 hrs.
Assay [13] deals with T2, Cysteine protease ATG4B (Homo sapiens). The experiment in a line: Inhibition of recombinant ATG4B (unknown origin) expressed in Escherichia coli BL21(DE3) pLysS cells at 100 uM using LC3-GST as substrate incubated for 3 hrs by coomassie brilliant blue staining based assay.
Assay [14] relates to LNCaP. The assay can be described thus: Inhibition of AFM induced autophagy in human LNCaP cells assessed as decrease in autophagic vesicles at 1 uM preincubated for 2 hrs followed by medium change into aminoacid free medium for 3 hrs by DAP green staining based assay. It counts as functional, cell-based. The conditions noted are these: time 5.0 hrs.
In assay [15] the test system is LNCaP. The assay can be described thus: Induction of apoptosis in human LNCaP cells assessed as increase in cleaved PARP level at 5 uM preincubated for 2 hrs followed by apalutamide addition and measured after 24 hrs by immunoblotting analysis. It counts as functional, cell-based. To be noted: time 26.0 hrs.
Assay [16] has as its system LNCaP. The assay can be described thus: Induction of apoptosis in human LNCaP cells assessed as increase in cleaved PARP level at 5 uM preincubated for 2 hrs followed by abiraterone addition and measured after 24 hrs by immunoblotting analysis. The conditions noted are these: time 26.0 hrs. It counts as functional, cell-based.
The test system of assay [17] is LNCaP. The experiment in a line: Inhibition of AFM induced autophagy in human LNCaP cells assessed as restoration of p62 expression preincubated for 2 hrs followed by medium change into aminoacid free medium for 24 hrs by immunoblotting analysis. It is filed as functional, cell-based. The conditions noted are these: dose 1-10 µM, time 26.0 hrs, DDE = dose-dependent effect.

The nature of assay [18]: Inhibition of AFM induced autophagy in human LNCaP cells assessed as decrease in autophagic vesicles at 5 uM preincubated for 2 hrs followed by medium change into aminoacid free medium for 3 hrs by DAP green staining based assay. It counts as functional. To be noted: time 5 hrs.
Assay [19] relates to LNCaP. The experiment in a line: Induction of apoptosis in human LNCaP cells assessed as increase in cleaved PARP level at 5 uM preincubated for 2 hrs followed by cabazitaxel addition and measured after 24 hrs by immunoblotting analysis. It counts as functional, cell-based. To be noted: time 26.0 hrs.
The subject of assay [20] is LNCaP. The assay can be described thus: Induction of apoptosis in human LNCaP cells assessed as increase in cleaved PARP level at 5 uM preincubated for 2 hrs followed by enzalutamide addition and measured after 24 hrs by immunoblotting analysis. The conditions noted are these: time 26.0 hrs. It counts as functional, cell-based.
Assay [21] deals with LNCaP. The experiment in a line: Anticancer activity against human LNCaP cells assessed as reduction in cell viability incubated for 72 hrs by alamar blue assay. It counts as functional, cell-based. The conditions noted are these: DDE = dose-dependent effect.
The test system of assay [22] is LNCaP. The experiment in a line: Induction of apoptosis in human LNCaP cells assessed PARP cleavage at 10 uM incubated for 24 hrs by immunoblotting analysis. It is filed as functional, cell-based.
The test system of assay [23] is LNCaP. The experiment in a line: Induction of autophagy in human LNCaP cells assessed as increase in Ser403-phosphorylated P62 level at 1 to 10 uM incubated for 24 hrs by Western blot analysis. It is filed as functional, cell-based. To be noted: dose 1-10 µM.
Assay [24] has as its system LNCaP. The experiment in a line: Induction of autophagy in human LNCaP cells assessed as increase in LC3-2 level at 1 to 10 uM incubated for 24 hrs by Western blot analysis. It counts as functional, cell-based. To be noted: dose 1-10 µM.
The test system of assay [25] is LNCaP. The experiment in a line: Induction of apoptosis in human LNCaP cells transfected with Atg4B siRNA at 10 uM incubated for 24 hrs by immunoblotting analysis. It is filed as functional, cell-based.
Assay [26] concerns LNCaP. The experiment in a line: Induction of apoptosis in human LNCaP cells assessed as increase in cleaved capase-9 expression at 10 uM preincubated for 2 hrs followed by enzalutamide addition and measured after 24 hrs by Western blotting analysis. It is filed as functional, cell-based. To be noted: time 26.0 hrs.
Assay [27] has as its system LNCaP. The assay can be described thus: Induction of apoptosis in human LNCaP cells assessed as increase in cleaved PARP expression at 10 uM preincubated for 2 hrs followed by enzalutamide addition and measured after 24 hrs by Western blotting analysis. It is filed as functional, cell-based. The conditions noted are these: time 26.0 hrs.

Activity calls are given as the source filed them. The rule behind the calls is not given here.

Chain of Phospholipase A2 (P04054 whole entry): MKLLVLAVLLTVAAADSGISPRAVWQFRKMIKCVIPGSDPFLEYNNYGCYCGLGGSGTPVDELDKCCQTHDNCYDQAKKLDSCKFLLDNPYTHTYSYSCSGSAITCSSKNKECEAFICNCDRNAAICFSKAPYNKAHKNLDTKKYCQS

`CCCCCCCCCCCCCCCc1ccc(C(=O)/C=C/C(=O)O)cc1`: the IC50 on Cysteine protease ATG4B [1] was 46 µM; against Phospholipase A2, 5.4 µM. The Ratio IC50 in the assay listed under Homo sapiens was 29.

Turning to `CCCCCCCCCCCCc1ccc(C(=O)/C=C/C(=O)O)cc1`, the IC50 at Cysteine protease ATG4B [1] is 13 µM; against Phospholipase A2 it was 1.3 µM. The Ratio IC50 in the assay listed under Homo sapiens was 24.

`CCN(CC)CCCC(C)Nc1ccnc2cc(Cl)ccc12` (stereo unspecified): the result in the assay on LNCaP [2] was Active.

Regarding `CCCCCCCCCc1ccc(C(=O)/C=C/C(=O)O)cc1`, the IC50 is 21 µM at Cysteine protease ATG4B [1] and 8 µM on Phospholipase A2. Also, the Ratio IC50 in the assay listed under Homo sapiens is 93.

In the case of `CCCCCCCCCCc1ccc(C(=O)/C=C/C(=O)O)cc1`, the 50% inhibitory concentration (IC50) at Cysteine protease ATG4B [1] was found to be 13 µM; against Phospholipase A2 it was 1.6 µM. In the assay filed under Homo sapiens, the Ratio IC50 was 30.

Consider `CCCCCCCCCCCCCCCCCCc1ccc(C(=O)/C=C/C(=O)O)cc1`, for which the inhibition entry (in [3]; in [4]; with LNCaP [7]; in the assay on LNCaP [8]; in the assay on LNCaP [9]; in the assay with LNCaP [10]) was “Active” each time. Also, in assay [13], the inhibition result was “Active”. Further, the inhibition result in [5] is “Tde”. In addition, at Cysteine protease ATG4B [6], the Ki is 4.6 µM. Also, the outcome in the assay with LNCaP [11] and in the assay on LNCaP [12] was Active. For the same molecule, the 50% inhibitory concentration (IC50) at Cysteine protease ATG4B [1] came to 12 µM; on Phospholipase A2, 0.049 µM. In addition, in the assay filed under Homo sapiens, the Ratio IC50 turned out to be 1.

For the molecule `CCCCCCCCCCCCCCCCCCCc1ccc(C(=O)/C=C/C(=O)O)cc1`, the IC50 was found to be 73 µM at Cysteine protease ATG4B [1] and 0.35 µM against Phospholipase A2. Further, in the assay listed under Homo sapiens, the Ratio IC50 was determined as 12.

`CCCCCCCCCCCc1ccc(C(=O)/C=C/C(=O)O)cc1`: the inhibition result in the assay on LNCaP [14] was “Active”. Further, the outcome with LNCaP [15], in the assay with LNCaP [16], with LNCaP [19] and in the assay on LNCaP [20] was Active. Further, the Ki at Cysteine protease ATG4B [6] worked out at 3.1 µM. The IC50 on Cysteine protease ATG4B [1] is 11 µM; against Phospholipase A2 it was 3.5 µM. For the same molecule, the Ratio IC50 in the assay filed under Homo sapiens was found to be 80. For the same molecule, the inhibition entry in the assay with LNCaP [17] is “Dde”. The inhibition at 5 µM in assay [18] stood at 100%.

Regarding `CCCc1ccc(C(=O)/C=C/C(=O)O)cc1`, the concentration for half-maximal inhibition (IC50) on Cysteine protease ATG4B [1] was 130 µM.

Turning to `O=C(O)/C=C/C(=O)c1ccccc1`, at Cysteine protease ATG4B [1], the IC50 amounted to 580 µM.

With `CCCCCCCCCCCCCCCCCc1ccc(C(=O)/C=C/C(=O)O)cc1`, on Cysteine protease ATG4B [1], the IC50 worked out at 47 µM.

As to `CCCCCCCCCCCCCCCCCCCCCc1ccc(C(=O)/C=C/C(=O)O)cc1`, on Cysteine protease ATG4B [1], the IC50 was found to be 42 µM.

As to `C[C@]12CC[C@H](O)CC1=CC[C@@H]1[C@@H]2CC[C@]2(C)C(c3cccnc3)=CC[C@@H]12`, the Activity entry in the assay on LNCaP [21] is “Dde”. In addition, the result with LNCaP [22], in the assay with LNCaP [23], in the assay with LNCaP [24], in the assay with LNCaP [25], in the assay with LNCaP [26] and in the assay with LNCaP [27] was Active.

For `CCCCCCCc1ccc(C(=O)/C=C/C(=O)O)cc1`, the half-inhibitory concentration (IC50) on Cysteine protease ATG4B [1] is 26 µM; on Phospholipase A2 it was 5.9 µM. Further, in the assay listed under Homo sapiens, the Ratio IC50 is 56.

`CCCCCc1ccc(C(=O)/C=C/C(=O)O)cc1`: the IC50 on Cysteine protease ATG4B [1] was found to be 36 µM; on Phospholipase A2 it was 30 µM. In the assay filed under Homo sapiens, the Ratio IC50 came to 200.

As for `CCCCCCCCCCCCCc1ccc(C(=O)/C=C/C(=O)O)cc1`, the half-inhibitory concentration (IC50) at Cysteine protease ATG4B [1] amounted to 21 µM; on Phospholipase A2, 7.1 µM. The Ratio IC50 in the assay listed under Homo sapiens stood at 85.

These data come from ChEMBL document CHEMBL5154778, “Discovery and Structure-Based Optimization of Novel Atg4B Inhibitors for the Treatment of Castration-Resistant Prostate Cancer” (J Med Chem, 2022).
